Our source for the MIC values is patent US10874599B2, “Composition for inhibiting micro-organisms” (Clariant International Ltd., priority 2016, dated 2020).

Assay in all cases: MIC agar dilution test
Common to all, as to type: cell-based

In one assay the test system is Aspergillus brasiliensis. The following applies: Experimental 1; Sabouraud-4% Dextrose-Agar, pH 5.6 (+/−0.2). As to the method:
(§1) For testing the inhibition of bacteria, Composition 6 from Table 1 above was diluted in butylpolyglycol and added in different concentrations to liquid Caso-Agar at 50° C. and is buffered to pH 7 (+/−0.2). For testing the inhibition of yeast and mold, the Composition 6 was diluted in butylpolyglycol and added in different concentrations to liquid Sabouraud-4% Dextrose-Agar at 50° C. and is buffered to pH 5.6 (+/−0.2). Each of the solutions is poured into a petri-dish and inoculated with the same amount of bacteria, yeast or mold respectively. The minimum inhibitory concentration (MIC) is the lowest concentration of Composition 6 that inhibits the growth of the respective microorganism where the next lowest dilution fails to inhibit the growth of said microorganism.
(§2) A similar experiment was carried out versus Experimental 1. The composition employed in this second experiment is almost identical in composition to Composition 6 from Table 1 above, differing only slightly in the exact levels of the components. Composition 6a is according to the first aspect of the present invention. Here, a comparison is made versus the efficacy of phenoxyethanol, alone and in combination with composition 6a.

A further assay relates to Aspergillus terreus. The following applies: Experimental 1; Sabouraud-4% Dextrose-Agar, pH 5.6 (+/−0.2). The procedure:
as §1, §2

In another assay the test system is Candida albicans. As to conditions: Experimental 1; Sabouraud-4% Dextrose-Agar, pH 5.6 (+/−0.2). The procedure: as §1, §2
The next assay deals with Candida parapsilosis. As to conditions: Experimental 1; Sabouraud-4% Dextrose-Agar, pH 5.6 (+/−0.2). As to the method: as §1, §2
For the next assay, the system named is Citrobacter freundii. The following applies: Experimental 1; Caso-Agar, pH 7 (+/−0.2). As to the method: as §1, §2
The test system of the next assay is Enterobacter aerogenes. The following applies: Experimental 1; Caso-Agar, pH 7 (+/−0.2). The procedure: as §1, §2
The next assay concerns Enterobacter gergovia. The following applies: Experimental 1; Caso-Agar, pH 7 (+/−0.2). As to the method: as §1, §2
The subject of a further assay is Escherichia coli. As to conditions: Experimental 1; Caso-Agar, pH 7 (+/−0.2). The procedure: as §1, §2
The test system of another assay is Fusarium solani. The following applies: Experimental 1; Sabouraud-4% Dextrose-Agar, pH 5.6 (+/−0.2). As to the method:
as §1, §2

For a further assay, the system named is Klebsiella pneumoniae. As to conditions: Experimental 1; Caso-Agar, pH 7 (+/−0.2). As to the method:
as §1, §2

The subject of another assay is Penicillium funicolosium. The following applies: Experimental 1; Sabouraud-4% Dextrose-Agar, pH 5.6 (+/−0.2). As to the method: as §1, §2
In a further assay the test system is Penicillium minioluteum. The following applies: Experimental 1; Sabouraud-4% Dextrose-Agar, pH 5.6 (+/−0.2). The procedure: as §1, §2
A further assay relates to Pseudomonas aeruginosa. The following applies: Experimental 1; Caso-Agar, pH 7 (+/−0.2). As to the method:
as §1, §2

The next assay deals with Saccharomyces cerevisiae. The following applies: Experimental 1; Sabouraud-4% Dextrose-Agar, pH 5.6 (+/−0.2). The procedure:
as §1, §2

The next assay concerns Staphylococcus aureus. As to conditions: Experimental 1; Caso-Agar, pH 7 (+/−0.2). The procedure:
as §1, §2

In the next assay the test system is Brevibacterium linens. The following applies: Experimental 1; Caso-Agar, pH 7 (+/−0.2). As to the method:
as §1

The test system of another assay is Cornyebacterium jeikeium. As to conditions: Experimental 1; Caso-Agar, pH 7 (+/−0.2). The procedure: as §1
Another assay concerns Cornyebacterium xerosis. As to conditions: Experimental 1; Caso-Agar, pH 7 (+/−0.2). As to the method:
as §1

A further assay deals with Malassezia furfur. The following applies: Experimental 1; Sabouraud-4% Dextrose-Agar, pH 5.6 (+/−0.2). The procedure:
as §1

Another assay deals with Malassezia pachydermatis. The following applies: Experimental 1; Sabouraud-4% Dextrose-Agar, pH 5.6 (+/−0.2). As to the method: as §1
Another assay relates to Malassezia sympiodalis. As to conditions: Experimental 1; Sabouraud-4% Dextrose-Agar, pH 5.6 (+/−0.2). As to the method: as §1
A further assay has as its system Staph. Epidermis. As to conditions: Experimental 1; Caso-Agar, pH 7 (+/−0.2). As to the method: as §1
A further assay deals with Streptococcus mutans. The following applies: Experimental 1; Caso-Agar, pH 7 (+/−0.2). The procedure:
as §1

Take Sorbitan Caprylate: the MIC is recorded as 800 ppm in the assay with Aspergillus brasiliensis; 800 ppm in the assay with Aspergillus terreus; 800 ppm in the assay with Candida albicans; 800 ppm with Candida parapsilosis; 10000 ppm in the assay on Citrobacter freundii; 10000 ppm in the assay on Enterobacter aerogenes. In addition, the MIC came out at 10000 ppm in the assay on Enterobacter gergovia; 10000 ppm in the assay with Escherichia coli; 800 ppm in the assay on Fusarium solani; 800 ppm in the assay with Klebsiella pneumoniae; 400 ppm in the assay with Penicillium funicolosium; 400 ppm with Penicillium minioluteum. Besides, the MIC came out at 10000 ppm with Pseudomonas aeruginosa; 600 ppm in the assay on Saccharomyces cerevisiae; 800 ppm with Staphylococcus aureus; 4000 ppm against Brevibacterium linens; 4000 ppm in the assay on Cornyebacterium jeikeium; 2000 ppm against Cornyebacterium xerosis. Further, the MIC in the assay with Malassezia furfur was found to be 600 ppm; with Malassezia pachydermatis, 400 ppm; in the assay with Malassezia sympiodalis, 400 ppm; in the assay with Staph. Epidermis, 10000 ppm; against Streptococcus mutans it was 2000 ppm.
